Reference: the NIST ThermoML archive (doi:10.1007/s10765-008-0444-7)

Columns and labels:
[1] = 101.3 kPa, Liquid; for viscosity: Capillary tube (Ostwald / Ubbelohde) method; for mass density: Pycnometric method
[2] = xn = mol fraction of the nth substance listed; details: 101 kPa, Liquid; for viscosity: Capillary tube (Ostwald / Ubbelohde) method; for mass density: Pycnometric method

Brc1ccccc1 [bromobenzene]
[1]
Details	mass density [kg/m3]	viscosity [mPa·s]
293 K	1497	1.164
303 K	1483	0.9844
313 K	1467	0.8786

Brc1ccccc1 [bromobenzene] + CO
[2]
Details	mass density, 293 K [kg/m3]	mass density, 303 K [kg/m3]	mass density, 313 K [kg/m3]	viscosity, 293 K [mPa·s]	viscosity, 303 K [mPa·s]	viscosity, 313 K [mPa·s]
x2 = 0	1497	1483	1467	1.164	0.9844	0.8786
x2 = 0.3528	1381	1367	1352	1.124	0.9306	0.8142
x2 = 0.5504	1280	1267	1253	1.008	0.8356	0.7399
x2 = 0.6775	1192	1179	1166	0.8873	0.742	0.6444
x2 = 0.7657	1114	1102	1089	0.8144	0.6962	0.6019
x2 = 0.8305	1045	1033	1021	0.7619	0.6467	0.5686
x2 = 0.8802	983	972.1	960.7	0.7235	0.617	0.5451
x2 = 0.9195	927.6	917.2	906.4	0.686	0.5891	0.513
x2 = 0.9552	871.4	861.5	851.1	0.657	0.5651	0.49
x2 = 0.9778	832.3	822.8	812.9	0.6312	0.5344	0.4773

Clc1ccccc1 [chlorobenzene]
[1]
Details	mass density [kg/m3]	viscosity [mPa·s]
293 K	1105.8	0.8432
303 K	1095	0.721
313 K	1082	0.6247

Clc1ccccc1 [chlorobenzene] + CO
[2]
Details	mass density, 293 K [kg/m3]	mass density, 303 K [kg/m3]	mass density, 313 K [kg/m3]	viscosity, 293 K [mPa·s]	viscosity, 303 K [mPa·s]	viscosity, 313 K [mPa·s]
x2 = 0	1105.8	1095	1082	0.8432	0.721	0.6247
x2 = 0.2808	1066.5	1056	1044	0.8312	0.7121	0.6157
x2 = 0.4676	1029.2	1019	1007	0.8209	0.6924	0.6041
x2 = 0.601	993.9	983.7	972.5	0.8018	0.6821	0.5832
x2 = 0.7009	960.5	950.4	939.4	0.7699	0.6572	0.5569
x2 = 0.7783	928.8	918.9	908.1	0.7256	0.6093	0.5296
x2 = 0.8405	898.5	888.8	878.3	0.692	0.5828	0.51
x2 = 0.8913	869.7	860.1	849.9	0.6766	0.5672	0.4961
x2 = 0.9335	842.3	832.9	822.9	0.6424	0.5401	0.4701
x2 = 0.9693	816.2	806.8	797.1	0.6194	0.528	0.4591

CO [methanol]
[1]
Details	mass density [kg/m3]	viscosity [mPa·s]
293 K	791.1	0.591
303 K	781.9	0.518
313 K	772.4	0.45

CO [methanol] + Brc1ccccc1
[2], x1 = 1
Details	mass density [kg/m3]	viscosity [mPa·s]
293 K	791.1	0.591
303 K	781.9	0.518
313 K	772.4	0.45

CO [methanol] + Clc1ccccc1
[2], x1 = 1
Details	mass density [kg/m3]	viscosity [mPa·s]
293 K	791.1	0.591
303 K	781.9	0.518
313 K	772.4	0.45
